In US20250195521A1 (Revolution Medicines, Inc., priority 2020, published 2025):
Like-named read-outs stand apart in the source and are kept apart here.

Legend:
[1] = test system: Capan-1 cells (K-Ras G12V); experiment: CellTiter-Glo cell viability, Capan-1; format: cell-based, human; conditions: Homo sapiens, CAPAN-1, 120 h, K-Ras G12V, 5-day treatment; read-out: Capan-1 Cell Viability IC50
Method in brief: (§1)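 Viability read by luminescence on day 5 after direct compound addition to cells, following ~30 min room-temperature equilibration. Values expressed as percent of mean DMSO signal, curves fitted with a four-parameter logistic model.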

[2] = test system: NCI-H358 cells (K-Ras G12C); experiment: CellTiter-Glo cell viability, NCI-H358; format: cell-based, human; conditions: Homo sapiens, NCI-H358, 120 h, K-Ras G12C, 5-day treatment; read-out: H358 Cell Viability IC50
Method in brief: as §1

[3] = molecular target: K-Ras G12C(GMP-PNP) binding to BRAF RBD (Homo sapiens (Human), UniProt P01116+P62937, G12C); experiment: Disruption of BRAF RBD interaction with K-Ras (FRET / MOA assay), K-Ras G12C; format: biochemical
Method in brief: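 TR-FRET readout: after 3 h compound incubation at 25 °C, anti-His Eu and anti-GST allophycocyanin (10 and 50 nM final) added for a further 1.5 h. Dilution series was 10-point, 3-fold, top 30 μM final. Ras–cyclophilin A ternary complex formation blocks the BRAF RBD interaction; IC50 derived from reduced FRET ratio relative to DMSO.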

[4] = test system: K-Ras G12C (NCI-H358 cells); experiment: Potency assay: pERK in NCI-H358 cells; format: cell-based, human; conditions: Homo sapiens; NCI-H358 cells, 4 hours; read-out: pERK EC50 (H358 KRAS G12C)
Method in brief: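 Cells plated the day before were exposed for 4 h at 37° C, 5% CO2 to a 10-point, 3-fold DMSO dilution series (10 mM top stock), in duplicate. Phospho-ERK was read by AlphaLISA SureFire Ultra or by In-Cell Western with DRAQ5 DNA stain, and IC50 came from a 4-parameter sigmoidal fit.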

Sequence of K-Ras G12C(GMP-PNP) binding to BRAF RBD (P01116 other isoform, or with tags, fused parts or gaps G12C): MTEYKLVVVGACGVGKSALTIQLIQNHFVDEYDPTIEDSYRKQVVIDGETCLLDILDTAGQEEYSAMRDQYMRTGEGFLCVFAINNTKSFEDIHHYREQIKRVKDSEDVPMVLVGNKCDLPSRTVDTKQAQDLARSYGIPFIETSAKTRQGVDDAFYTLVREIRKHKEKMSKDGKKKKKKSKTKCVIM
Sequence of K-Ras G12C(GMP-PNP) binding to BRAF RBD (P62937 whole entry): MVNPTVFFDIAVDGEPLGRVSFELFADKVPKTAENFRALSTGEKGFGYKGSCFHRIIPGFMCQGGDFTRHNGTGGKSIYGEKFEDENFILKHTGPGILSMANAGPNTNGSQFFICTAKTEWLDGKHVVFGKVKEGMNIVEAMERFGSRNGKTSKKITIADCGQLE

SMILES | IC50 [2] [µM] | IC50 ([3]; KRAS G12C FRET IC50) [µM] | EC50 [4] [µM] | IC50 ([3]; read-out: KRAS G12C FRET IC50) [µM] | IC50 [1] [µM]
CCn1c(-c2cccnc2[C@H](C)OC)c2c3cc(ccc31)-c1csc(n1)C[C@H](NC(=O)[C@H](C(C)C)N(C)C(=O)C1COC1)C(=O)N1CCC[C@H](N1)C(=O)OCC(C)(C)C2 [Compound A245] | 0.1 to 1 | < 0.01 | < 5 | – | 0.1 to 1
CCn1c(-c2cccnc2[C@H](C)OC)c2c3cc(ccc31)-c1csc(n1)C[C@H](NC(=O)[C@H](C(C)C)N(C)C(=O)N1C[C@@H](C)N(C)C[C@@H]1C)C(=O)N1CCC[C@H](N1)C(=O)OCC(C)(C)C2 [Compound A292] | 0.1 to 1 | – | < 5 | < 0.01 | 0.1 to 1
CCn1c(-c2cccnc2[C@H](C)OC)c2c3cc(ccc31)-c1csc(n1)C[C@H](NC(=O)[C@H](C(C)C)N(C)C(=O)N1CC(N3CCC3)C1)C(=O)N1CCC[C@H](N1)C(=O)OCC(C)(C)C2 [Compound A295] | 0.01 to 0.1 | – | < 5 | 0.01 to 0.1 | 0.01 to 0.1
CCn1c(-c2cccnc2[C@H](C)OC)c2c3cc(ccc31)-c1csc(n1)C[C@H](NC(=O)[C@H](C(C)C)N(C)C(=O)N1C[C@H](C)N(C)C[C@H]1C)C(=O)N1CCC[C@H](N1)C(=O)OCC(C)(C)C2 [Compound A300] | – | – | < 5 | < 0.01 | 1 to 10
CCn1c(-c2cccnc2[C@H](C)OC)c2c3cc(ccc31)-c1csc(n1)C[C@H](NC(=O)[C@H](C(C)C)N1CCCN(C)C1=O)C(=O)N1CCC[C@H](N1)C(=O)OCC(C)(C)C2 [Compound A317] | 0.1 to 1 | – | < 5 | < 0.01 | 1 to 10
CCn1c(-c2cccnc2[C@H](C)OC)c2c3cc(ccc31)-c1cc(O)cc(c1)C[C@H](NC(=O)[C@@H]1[C@@H](C)CCCN1C(C)=O)C(=O)N1CCC[C@H](N1)C(=O)OCC(C)(C)C2 [Compound A324] | – | – | < 5 | < 0.01 | 1 to 10

More lines, main results first:

IC50 [2] [µM] | IC50 ([3]; KRAS G12C FRET IC50) [µM] | EC50 [4] [µM] | IC50 ([3]; read-out: KRAS G12C FRET IC50) [µM] | SMILES | IC50 [1] [µM]
– | – | < 5 | 0.01 to 0.1 | CCn1c(-c2cccnc2[C@H](C)OC)c2c3cc(ccc31)-c1csc(n1)C[C@H](NC(=O)[C@H](C(C)C)N(C)C(=O)N1CC(N3CCOCC3)C1)C(=O)N1CCC[C@H](N1)C(=O)OCC(C)(C)C2 [Compound A338] | 0.01 to 0.1
0.01 to 0.1 | – | < 5 | < 0.01 | CCN(CC)C(=O)N(C)[C@H](C(=O)N[C@H]1Cc2nc(cs2)-c2ccc3c(c2)c(c(-c2cccnc2[C@H](C)OC)n3CC)CC(C)(C)COC(=O)[C@@H]2CCCN(N2)C1=O)C(C)C [Compound A351] | 0.1 to 1
– | – | < 5 | 0.1 to 1 | CCn1c(-c2cccnc2[C@H](C)OC)c2c3cc(ccc31)-c1cc(O)cc(c1)C[C@H](NC(=O)[C@H](C(C)C)N(C)C(=O)C1CN3CCCN1CC3)C(=O)N1CCC[C@H](N1)C(=O)OCC(C)(C)C2 (some centres unmarked) [Compound A404] | > 10
– | – | < 5 | 0.01 to 0.1 | CCn1c(-c2cccnc2[C@H](C)OC)c2c3cc(ccc31)-c1csc(n1)C[C@H](NC(=O)[C@H](C(C)C)N(C)C(=O)N1CC[C@H]1CN)C(=O)N1CCC[C@H](N1)C(=O)OCC(C)(C)C2 [Compound A463] | 1 to 10
– | – | < 5 | < 0.01 | CCn1c(-c2cccnc2[C@H](C)OC)c2c3cc(ccc31)-c1csc(n1)C[C@H](NC(=O)[C@H](C(C)C)N(C)C(=O)N1CC[C@]3(CCNC3=O)C1)C(=O)N1CCC[C@H](N1)C(=O)OCC(C)(C)C2 [Compound A479] | 1 to 10
– | – | < 5 | 0.1 to 1 | CCn1c(-c2cccnc2[C@H](C)OC)c2c3cc(ccc31)-c1csc(n1)C[C@H](NC(=O)[C@H](C(C)C)N(C)C(=O)N1CCC13CCS(=O)(=O)CC3)C(=O)N1CCC[C@H](N1)C(=O)OCC(C)(C)C2 [Compound A530] | 0.1 to 1
– | – | < 5 | 0.01 to 0.1 | CCn1c(-c2cccnc2[C@H](C)OC)c2c3cc(ccc31)-c1csc(n1)C[C@H](NC(=O)[C@H](C(C)C)N(C)C(=O)N1CC[C@@H]1CN)C(=O)N1CCC[C@H](N1)C(=O)OCC(C)(C)C2 [Compound A558] | 0.1 to 1
